The record followed here is patent publication US20170239249A1, “QUINAZOLINE-BASED KINASE INHIBITORS” (Bristol-Myers Squibb Company, priority 2014, published 2017).

The target in the test is AAK1 (full length human) (Homo sapiens, UniProt Q2M2I8). Put plainly: HEK281 Cell-Based Assay (phospho-mu2 Western blot in HEK293F cells transfected with AAK1 and AP2M1). To be noted: IC50 (nM), functional potency; inhibition of mu2 phosphorylation in HEK293F cells, 3 hours incubation, 5 concentrations.
Chain of AAK1 (full length human) (Q2M2I8 1-863 isoform Q2M2I8-2): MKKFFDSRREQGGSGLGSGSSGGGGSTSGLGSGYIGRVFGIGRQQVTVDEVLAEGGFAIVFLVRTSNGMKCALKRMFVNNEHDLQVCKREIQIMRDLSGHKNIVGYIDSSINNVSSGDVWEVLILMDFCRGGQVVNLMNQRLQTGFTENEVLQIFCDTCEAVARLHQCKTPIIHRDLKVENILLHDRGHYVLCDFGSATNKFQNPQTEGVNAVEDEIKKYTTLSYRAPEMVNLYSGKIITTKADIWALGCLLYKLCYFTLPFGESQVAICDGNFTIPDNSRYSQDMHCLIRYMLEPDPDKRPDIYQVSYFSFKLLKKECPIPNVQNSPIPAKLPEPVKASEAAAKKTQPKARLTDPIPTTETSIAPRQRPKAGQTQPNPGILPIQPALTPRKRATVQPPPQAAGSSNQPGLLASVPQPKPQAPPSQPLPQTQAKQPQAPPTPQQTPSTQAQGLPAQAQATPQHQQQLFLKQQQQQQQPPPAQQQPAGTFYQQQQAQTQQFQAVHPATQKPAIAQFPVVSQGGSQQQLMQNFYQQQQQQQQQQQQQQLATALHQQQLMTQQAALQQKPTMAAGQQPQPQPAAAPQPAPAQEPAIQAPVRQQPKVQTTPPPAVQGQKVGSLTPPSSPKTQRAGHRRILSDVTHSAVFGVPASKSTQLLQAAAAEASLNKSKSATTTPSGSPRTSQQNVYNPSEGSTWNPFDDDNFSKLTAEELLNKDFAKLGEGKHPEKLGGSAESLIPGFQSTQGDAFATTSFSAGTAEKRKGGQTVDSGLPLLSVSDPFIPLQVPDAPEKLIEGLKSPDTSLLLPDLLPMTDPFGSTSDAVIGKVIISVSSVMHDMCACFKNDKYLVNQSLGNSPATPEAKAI
As to `COc1nc(C(N)CC(C)C)nc2ccc(-c3ccncc3)cc12` (stereo not shown) [Example 55, 1-(4-Methoxy-6-(pyridin-4-yl)quinazolin-2-yl)-3-methylbutan-1-amine], the IC50 amounted to 97 nM.

Take `CCc1nc(C(N)CC(C)C)nc2cc(OC)c(-c3ccncc3)cc12` (stereo not shown) [Example 88, 1-(4-Ethyl-7-methoxy-6-(pyridin-4-yl)quinazolin-2-yl)-3-methylbutan-1-amine]: the IC50 was determined as 932 nM.

As to `COc1cc2nc(CCC(C)C)[nH]c(=O)c2cc1-c1cnco1` [Example 58, 2-Isopentyl-7-methoxy-6-(oxazol-5-yl)quinazolin-4(3H)-one], half-maximal inhibition (IC50) was put at 20 nM.

Turning to `CCc1nc(C(C)CC(C)C)nc2ccc(-c3ccnc(NC)c3)cc12` (stereo not shown) [Example 67, 4-(4-Ethyl-2-(4-methylpentan-2-yl)quinazolin-6-yl)-N-methylpyridin-2-amine], the concentration for half-maximal inhibition (IC50) was determined as 1500 nM.

In turn, `CC(C)CC(N)c1nc(N2CCC2)c2cc(-c3ccncc3)ccc2n1` (stereo not shown) [Example 73, 1-(4-(Azetidin-1-yl)-6-(pyridin-4-yl)quinazolin-2-yl)-3-methylbutan-1-amine] had an IC50 of 44 nM.

`CCc1nc(CCC2CCCC2)nc2ccc(-c3ccncc3)cc12` [Example 10, 2-(2-Cyclopentylethyl)-4-ethyl-6-(pyridin-4-yl)quinazoline] gave a concentration for half-maximal inhibition (IC50) of 4800 nM.

`CCN(CC)c1nc(C(N)CC(C)C)nc2ccc(-c3ccncc3OC)cc12` (stereo not shown) [Example 27, 2-(1-Amino-3-methylbutyl)-N,N-diethyl-6-(3-methoxypyridin-4-yl)quinazolin-4-amine] showed a half-maximal inhibitory concentration (IC50) of 20 nM.

Take `COc1cc2nc([C@H](N)CC(C)C)ncc2cc1-c1cnco1` [Example 36, (R)-1-(7-Methoxy-6-(oxazol-5-yl)quinazolin-2-yl)-3-methylbutan-1-amine]: 113 nM corresponded to half-maximal inhibition (IC50).

`COCCNc1nc(C(N)CC(C)C)nc2ccc(-c3cnco3)cc12` (stereo not shown) [Example 22, 2-(1-Amino-3-methylbutyl)-N-(2-methoxyethyl)-6-(oxazol-5-yl)quinazolin-4-amine] yielded an IC50 of 1300 nM.

With `CC(C)CC(N)c1nc(N2CCCC2)c2cc(-c3cnco3)ccc2n1` (stereo not shown) [Example 19, 3-Methyl-1-(6-(oxazol-5-yl)-4-(pyrrolidin-1-yl)quinazolin-2-yl)butan-1-amine], the IC50 worked out at 760 nM.

The compound `CCc1nc(C(N)C2CCCCC2)nc2ccc(-c3ccncc3)cc12` (single isomer, unassigned; (-)) [Example 7, (−)-Cyclohexyl(4-ethyl-6-(pyridin-4-yl)quinazolin-2-yl)methanamine] yielded an IC50 of 8 nM.

Regarding `CC(C)CC(N)c1nc(C#N)c2cc(-c3cnco3)ccc2n1` (stereo not shown) [Example 30, 2-(1-Amino-3-methylbutyl)-6-(oxazol-5-yl)quinazoline-4-carbonitrile], the IC50 is 17 nM.

For the compound `CC(C)CC(N)c1ncc2cc(-c3cnco3)ccc2n1` (stereo not shown) [Example 1, 3-Methyl-1-(6-(oxazol-5-yl)quinazolin-2-yl)butan-1-amine], the IC50 came to 420 nM.

Regarding `CNc1nc(C(N)CC(C)C)nc2ccc(-c3ccncc3)cc12` (stereo not shown) [Example 23, 2-(1-Amino-3-methylbutyl)-N-methyl-6-(pyridin-4-yl)quinazolin-4-amine], half-maximal inhibition (IC50) was put at 79 nM.

Consider `COc1nc(CCC(C)C)nc2ccc(-c3cnco3)cc12` [Example 41, 5-(2-Isopentyl-4-methoxyquinazolin-6-yl)oxazole], for which it took 3150 nM to reach half-maximal inhibition (IC50).

The compound `CC(C)CCc1nc(C(N)=O)c2cc(-c3ccncc3)ccc2n1` [Example 53, 2-Isopentyl-6-(pyridin-4-yl)quinazoline-4-carboxamide] came in with an IC50 of 354 nM.

As for `CCc1nc(C(C)CC(C)C)nc2ccc(-c3ccncc3)cc12` (stereo not shown) [Example 65, 4-Ethyl-2-(4-methylpentan-2-yl)-6-(pyridin-4-yl)quinazoline], the IC50 came out at 223 nM.

`CC(C)CC(N)c1nc(C#N)c2cc(-c3ccncc3)ccc2n1` (stereo not shown) [Example 33, 2-(1-Amino-3-methylbutyl)-6-(pyridin-4-yl)quinazoline-4-carbonitrile]: the IC50 is 14 nM.

The compound `CC(C)CCc1nc2ccc(-c3ccncc3)cc2c(=O)[nH]1` [Example 49, 2-Isopentyl-6-(pyridin-4-yl)quinazolin-4(3H)-one] registered an IC50 of 54 nM.

Take `COc1cnccc1-c1ccc2nc(CCC(C)C)nc(N(C)C)c2c1` [Example 29, 2-Isopentyl-6-(3-methoxypyridin-4-yl)-N,N-dimethylquinazolin-4-amine]: the IC50 amounted to 54 nM.

Regarding `CCc1nc(CCC(C)C)nc2ccc(-c3ccncc3)cc12` [Example 45, 4-Ethyl-2-isopentyl-6-(pyridin-4-yl)quinazoline], inhibition was half-maximal at 400 nM (IC50).

Compound `CC(C)CCc1nc(NCCN)c2cc(-c3cnco3)ccc2n1` [Example 44, N^1-(2-Isopentyl-6-(oxazol-5-yl)quinazolin-4-yl)ethane-1,2-diamine] displayed an IC50 of 2010 nM.

`CC(C)CCc1nc(C2CC2)c2cc(-c3ccncc3)ccc2n1` [Example 47, 4-Cyclopropyl-2-isopentyl-6-(pyridin-4-yl)quinazoline] showed an IC50 of 1340 nM.

In turn, `CCc1nc(CCC(C)C)nc2ccc(-c3cnco3)cc12` [Example 57, 5-(4-Ethyl-2-isopentylquinazolin-6-yl)oxazole] gave an IC50 of 1860 nM.

With `CCc1nc(C(N)CC2CCCCC2)nc2ccc(-c3ccncc3)cc12` (stereo not shown) [Example 9, 2-Cyclohexyl-1-(4-ethyl-6-(pyridin-4-yl)quinazolin-2-yl)ethanamine], the IC50 was 260 nM.

Regarding `CCc1nc(C(N)CC(C)C)nc2ccc(-c3ccncc3)cc12` (stereo not shown) [Example 62, 1-(4-Ethyl-6-(pyridin-4-yl)quinazolin-2-yl)-3-methylbutan-1-amine], inhibition was half-maximal at 37 nM (IC50).

For `CC(C)CC(N)c1nc(NCCO)c2cc(-c3cnco3)ccc2n1` (stereo not shown) [Example 21, 2-((2-(1-Amino-3-methylbutyl)-6-(oxazol-5-yl)quinazolin-4-yl)amino)ethanol], the IC50 was 1200 nM.

The compound `CCc1nc(CCC(C)C)nc2cc(OC)c(-c3cnco3)cc12` [Example 52, 5-(4-Ethyl-2-isopentyl-7-methoxyquinazolin-6-yl)oxazole] showed a half-inhibitory concentration (IC50) of 1270 nM.

Consider `CNc1nc(C(N)CC(C)C)nc2ccc(-c3cnco3)cc12` (stereo not shown) [Example 16, 2-(1-Amino-3-methylbutyl)-N-methyl-6-(oxazol-5-yl)quinazolin-4-amine], for which half-maximal inhibition (IC50) required 210 nM.

As to `CC(C)CCc1nc(NCCN(C)C)c2cc(-c3ccncc3)ccc2n1` [Example 48, N-(2-Isopentyl-6-(pyridin-4-yl)quinazolin-4-yl)-N^2,N^2-dimethylethane-1,2-diamine], the IC50 was 1190 nM.

Consider `CC(C)CCc1nc2ccc(-c3cn[nH]c3)cc2c(=O)[nH]1` [Example 51, 2-Isopentyl-6-(1H-pyrazol-4-yl)quinazolin-4(3H)-one], for which it took 22 nM to reach half-maximal inhibition (IC50).

Compound `CCCc1nc(C(N)CC(C)C)nc2ccc(-c3cnco3)cc12` (stereo not shown) [Example 4, 3-Methyl-1-(6-(oxazol-5-yl)-4-propylquinazolin-2-yl)butan-1-amine] returned an IC50 of 5300 nM.

`COC(=O)CCNc1nc(CCC(C)C)nc2ccc(-c3cnco3)cc12` [Example 82, Methyl 3-((2-isopentyl-6-(oxazol-5-yl)quinazolin-4-yl)amino)propanoate] came in with a concentration for half-maximal inhibition (IC50) of 4620 nM.

Compound `CCNc1nc(C(N)CC(C)C)nc2ccc(-c3ccncc3OC)cc12` (stereo not shown) [Example 28, 2-(1-Amino-3-methylbutyl)-N-ethyl-6-(3-methoxypyridin-4-yl)quinazolin-4-amine] had an IC50 of 380 nM.

Compound `COc1cnccc1-c1ccc2nc(C(N)CC(C)C)nc(N(C)C)c2c1` (stereo not shown) [Example 26, 2-(1-Amino-3-methylbutyl)-6-(3-methoxypyridin-4-yl)-N,N-dimethylquinazolin-4-amine] returned a half-inhibitory concentration (IC50) of 31 nM.

In turn, `CCNc1nc(C(N)CC(C)C)nc2ccc(-c3cnco3)cc12` (stereo not shown) [Example 20, 2-(1-Amino-3-methylbutyl)-N-ethyl-6-(oxazol-5-yl)quinazolin-4-amine] registered an IC50 of 850 nM.

`CCN(CC)c1nc(C(N)CC(C)C)nc2ccc(-c3ccncc3)cc12` (stereo not shown) [Example 25, 2-(1-Amino-3-methylbutyl)-N,N-diethyl-6-(pyridin-4-yl)quinazolin-4-amine] gave an IC50 of 22 nM.

Turning to `CCOc1cc2nc(CCC(C)C)nc(CC)c2cc1-c1cnco1` [Example 54, 5-(7-Ethoxy-4-ethyl-2-isopentylquinazolin-6-yl) oxazole], the IC50 worked out at 2590 nM.

For `CCc1nc(C(N)CC(C)C)nc2cc(OC)c(-c3cnco3)cc12` (stereo not shown) [Example 85, 1-(4-Ethyl-7-methoxy-6-(oxazol-5-yl)quinazolin-2-yl)-3-methylbutan-1-amine], the midpoint of inhibition, the IC50, lay at 24 nM.

Turning to `CNc1nc(CCC(C)C)nc2ccc(-c3cnco3)cc12` [Example 39, 2-Isopentyl-N-methyl-6-(oxazol-5-yl)quinazolin-4-amine], the IC50 came to 1140 nM.

As to `CCc1nc(C(N)CCC(F)(F)F)nc2ccc(-c3ccncc3)cc12` (stereo not shown) [Example 69, 1-(4-Ethyl-6-(pyridin-4-yl)quinazolin-2-yl)-4,4,4-trifluorobutan-1-amine], the IC50 was 32 nM.

As for `CC(C)CCc1nc(C(C)C)c2cc(-c3ccncc3)ccc2n1` [Example 46, 2-Isopentyl-4-isopropyl-6-(pyridin-4-yl)quinazoline], the IC50 turned out to be 1390 nM.

As for `CC(C)CC(N)c1nc(N2CC2)c2cc(-c3ccncc3)ccc2n1` (stereo not shown) [Example 74, 1-(4-(Aziridin-1-yl)-6-(pyridin-4-yl)quinazolin-2-yl)-3-methylbutan-1-amine], the midpoint of inhibition, the IC50, lay at 263 nM.
